Experimental data from ChEMBL document CHEMBL5604063, “ASAP - DENV-2 NS2B-NS3 protease fluorescence dose response” (2024).
Several values for one entry are separate records, joined by “and”; a condition that tells them apart may be missing. Identical values can stand only once.

What was measured:
[1] = biological target: T1, Genome polyprotein (dengue virus type 2, UniProt P29990); format: functional, Thailand/16681/1984
[2] = biological target: T1, Genome polyprotein; format: functional, Thailand/16681/1984; remark: listed apart in the source

T1 sequence (P29990 1346-1475 limits assumed): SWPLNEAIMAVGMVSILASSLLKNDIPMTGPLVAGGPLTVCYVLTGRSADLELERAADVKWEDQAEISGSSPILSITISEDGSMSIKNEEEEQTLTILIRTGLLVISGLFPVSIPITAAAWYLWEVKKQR
T1 sequence (P29990 1476-2093 limits assumed): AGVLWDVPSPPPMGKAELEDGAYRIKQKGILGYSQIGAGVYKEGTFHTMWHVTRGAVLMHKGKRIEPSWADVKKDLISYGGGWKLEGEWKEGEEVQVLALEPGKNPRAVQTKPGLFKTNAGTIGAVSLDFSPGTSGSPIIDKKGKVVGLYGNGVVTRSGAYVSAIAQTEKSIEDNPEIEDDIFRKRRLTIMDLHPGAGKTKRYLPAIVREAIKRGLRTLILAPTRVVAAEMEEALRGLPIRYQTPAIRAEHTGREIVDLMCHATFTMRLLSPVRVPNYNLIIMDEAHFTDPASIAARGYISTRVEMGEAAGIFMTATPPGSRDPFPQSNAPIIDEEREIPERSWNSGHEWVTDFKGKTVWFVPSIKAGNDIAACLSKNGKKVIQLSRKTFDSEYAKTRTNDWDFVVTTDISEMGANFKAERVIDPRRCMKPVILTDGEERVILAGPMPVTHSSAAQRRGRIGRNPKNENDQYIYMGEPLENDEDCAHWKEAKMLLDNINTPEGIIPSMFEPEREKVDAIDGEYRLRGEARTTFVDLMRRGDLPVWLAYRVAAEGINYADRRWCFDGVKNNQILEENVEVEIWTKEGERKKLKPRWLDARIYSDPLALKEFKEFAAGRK

O=C(Nc1cc(Cl)cc(C(=O)NCCc2nnn[nH]2)c1)OCc1ccccc1
IC50 [1]: > 99.5 µM
IC50 [2]: > 100 µM

Cc1c(C(=O)Nc2cccc(-n3nn[nH]c3=O)c2)cc(C2CC2)n1C
IC50 [1]: > 99.5 µM
IC50 [2]: > 100 µM

N#Cc1ccc(CN)cc1NC(=O)c1cc(Cl)cc(NC(=O)OCc2ccccc2)c1
IC50 [1]: > 99.5 µM
IC50 [2]: > 100 µM

Cc1nc(-c2ccc(Cl)cc2)sc1C(=O)Nc1cccc(CN)c1
IC50 [1]: > 99.5 µM
IC50 [2]: > 100 µM

CC[C@H](Cc1nnn[nH]1)c1ccc(NC(=O)c2cc(Cl)cc(SC)c2)cc1
IC50 [1]: 67.2 µM
IC50 [2]: 40.6 µM

O=C(Nc1cccc(-c2nnn[nH]2)c1)c1cc(Cl)cc2[nH]ncc12
IC50 [1]: > 99.5 µM
IC50 [2]: > 100 µM

CCn1c(=O)c(N2CC[C@H](CO)C2)nc2ccc(C(=O)NS(C)(=O)=O)cc21
IC50 [1]: > 99.5 µM
IC50 [2]: > 100 µM

Cc1c(C(=O)Nc2cccc([C@H]3CCNC3)c2)cc(C2CC2)n1C
IC50 [1]: > 99.5 µM
IC50 [2]: > 100 µM

N#Cc1cc(Cl)cc(S(=O)(=O)Nc2cccc(-c3nnn[nH]3)c2)c1
IC50 [1]: > 99.5 µM
IC50 [2]: > 100 µM

Cc1c(C(=O)Nc2cccc(CCN)c2)cc(C2CC2)n1C
IC50 [1]: > 99.5 µM
IC50 [2]: > 100 µM

O=C(Nc1cc(Cl)cc(C(=O)Nc2cccc(-c3cn[nH]n3)c2)c1)OCc1ccccc1
IC50 [1]: 55.7 µM
IC50 [2]: > 100 µM

Cc1ccc(NC(=O)c2cc(C3CC3)n(C)c2C)cc1CN
IC50 [1]: > 99.5 µM
IC50 [2]: > 100 µM

CC[C@H](Cc1nnn[nH]1)c1ccc(NC(=O)c2cc(Cl)cc3[nH]ncc23)cc1
IC50 [1]: > 99.5 µM
IC50 [2]: > 100 µM

CCc1nc(C(=O)Nc2cccc(CN)c2)nn1-c1c(Cl)cccc1Cl
IC50 [1]: > 99.5 µM
IC50 [2]: > 100 µM

CC(C)c1nc2c(C(=O)Nc3cccc(-c4nnn[nH]4)c3)cccc2[nH]1
IC50 [1]: > 99.5 µM
IC50 [2]: > 100 µM

N#Cc1cc(Cl)cc(C(=O)Nc2cccc(-n3nn[nH]c3=O)c2)c1
IC50 [1]: > 99.5 µM
IC50 [2]: > 100 µM

Cn1nnnc1-c1cccc(NC(=O)c2cc(Cl)cc(NC(=O)OCc3ccccc3)c2)c1
IC50 [1]: > 99.5 µM
IC50 [2]: > 100 µM

O=C1Cc2cc(NC(=O)c3cc(Cl)cc(NC(=O)OCc4ccccc4)c3)ccc2N1
IC50 [1]: > 99.5 µM
IC50 [2]: > 100 µM

Nc1nc2ccc(NC(=O)c3cc(Cl)cc(NC(=O)OCc4ccccc4)c3)cc2[nH]1
IC50 [1]: > 99.5 µM
IC50 [2]: > 100 µM

CSc1cc(Cl)cc(C(=O)Nc2cccc(-n3nn[nH]c3=O)c2)c1
IC50 [1]: > 99.5 µM
IC50 [2]: 78.2 µM

CCNC(=O)Nc1cc(Cl)cc(C(=O)Nc2ccc([C@H](CC)Cc3nnn[nH]3)cc2)c1
IC50 [1]: > 99.5 µM
IC50 [2]: > 100 µM

CNC(=O)[C@H](Nc1cccc(N)n1)c1cc(Cl)cc(CNC(=O)OC(C)(C)C)c1
IC50 [1]: > 99.5 µM
IC50 [2]: > 100 µM

O=C(Nc1cc(Cl)cc(C(=O)Nc2cc(Br)cc(-c3nnn[nH]3)c2)c1)OCc1ccccc1
IC50 [1]: 5.85 µM
IC50 [2]: 4.76 µM and 6.21 µM

Nc1cccc(NC(=O)c2cc(Cl)cc(NC(=O)OCc3ccccc3)c2)n1
IC50 [1]: > 99.5 µM
IC50 [2]: > 100 µM

COC(=O)c1cc(NC(=O)c2cc(Cl)cc(NC(=O)OCc3ccccc3)c2)cc(-c2nnn[nH]2)c1
IC50 [1]: 6.17 µM
IC50 [2]: 5.42 µM and 6.24 µM

N#Cc1cc(CN)cc(NC(=O)c2cc(Cl)cc(NC(=O)OCc3ccccc3)c2)c1
IC50 [1]: > 99.5 µM
IC50 [2]: > 100 µM

O=C(Nc1cc(Cl)cc(C(=O)NCCCc2nnn[nH]2)c1)OCc1ccccc1
IC50 [1]: > 99.5 µM
IC50 [2]: > 100 µM

C=CC[C@H](Nc1cccc(CN)n1)c1cc(Cl)cc(NC(=O)OCc2ccccc2)c1
IC50 [1]: > 99.5 µM
IC50 [2]: > 100 µM

O=C(Nc1cc(Cl)cc(C(=O)Nc2ccc(-n3nn[nH]c3=O)cc2)c1)OCc1ccccc1
IC50 [1]: 13.3 µM and 14.1 µM
IC50 [2]: 7.45 µM and 7.74 µM

CC(C)[C@H](NC(=O)c1cc(Cl)cc(NC(=O)OCc2ccccc2)c1)c1nn[nH]n1
IC50 [1]: > 99.5 µM
IC50 [2]: 61.3 µM and 41.1 µM and 39.5 µM and 56.3 µM and 58.4 µM

CC[C@H](Cc1nnn[nH]1)c1ccc(NC(=O)c2cc(Cl)cc(C#N)c2)cc1
IC50 [1]: > 99.5 µM
IC50 [2]: > 100 µM

Cc1cc(CN)cc(NC(=O)c2cc(C3CC3)n(C)c2C)c1
IC50 [1]: > 99.5 µM
IC50 [2]: > 100 µM

Cc1c(C(=O)Nc2cccc([C@@H](C)N)c2)cc(C2CC2)n1C
IC50 [1]: > 99.5 µM
IC50 [2]: > 100 µM

Cn1cc(C(=O)Nc2cccc(CN)c2)c(-c2cnccn2)n1
IC50 [1]: > 99.5 µM
IC50 [2]: > 100 µM

N#Cc1cc(Cl)cc(C(=O)Nc2cccc(-c3nnn[nH]3)c2)c1
IC50 [1]: > 99.5 µM
IC50 [2]: > 100 µM

CNC(=O)[C@H](Nc1cccc(CN)c1)c1cc(Cl)cc(NC(=O)OCc2ccccc2)c1
IC50 [1]: > 99.5 µM
IC50 [2]: > 100 µM

O=C(Nc1cccc(-n2nn[nH]c2=O)c1)c1cc(Cl)cc2c1CCC2
IC50 [1]: > 99.5 µM
IC50 [2]: > 100 µM

O=C(Nc1cc(Cl)cc(C(=O)Nc2ccc([C@H]3CCCNC3)cc2)c1)OCc1ccccc1
IC50 [1]: 68.4 µM
IC50 [2]: > 100 µM

NC1CCN(c2ccc(NC(=O)c3cc(Cl)cc(NC(=O)OCc4ccccc4)c3)cc2)CC1
IC50 [1]: 39.7 µM
IC50 [2]: > 100 µM

O=C(Nc1cccc(-c2nnn[nH]2)c1)c1cc(Cl)cc(C2CC2)c1
IC50 [1]: 82.9 µM
IC50 [2]: 39.7 µM and 43.5 µM

CCNC(=O)Nc1cc(Cl)cc(C(=O)Nc2cccc(-c3nn[nH]n3)c2)c1
IC50 [1]: > 99.5 µM
IC50 [2]: > 100 µM

Cc1c(C(=O)Nc2cc(CCCN)ccn2)cc(C2CC2)n1C
IC50 [1]: 74.6 µM and 35.9 µM
IC50 [2]: > 100 µM

Cc1cc(C(=O)Nc2cccc(CN)c2)c(NC(=O)[C@H]2CCCO2)s1
IC50 [1]: > 99.5 µM
IC50 [2]: > 100 µM

O=C(Nc1cc(Cl)cc(C(=O)N[C@H](c2nn[nH]n2)C2CNC2)c1)OCc1ccccc1
IC50 [1]: > 99.5 µM
IC50 [2]: > 100 µM

COc1cc(C(=O)Nc2cccc(CN)c2)cc2cn(C)nc12
IC50 [1]: > 99.5 µM
IC50 [2]: > 100 µM

Cc1oc(C(=O)Nc2cccc(CN)c2)cc1COc1ccccc1
IC50 [1]: > 99.5 µM
IC50 [2]: > 100 µM

Cn1nc(C(=O)Nc2cccc(CN)c2)c2c1CCS(=O)(=O)C2
IC50 [1]: > 99.5 µM
IC50 [2]: > 100 µM

O=S(=O)(Nc1cccc(-c2nnn[nH]2)c1)c1cc(F)cc(Cl)c1
IC50 [1]: > 99.5 µM
IC50 [2]: > 100 µM

O=C(Nc1cccc(-n2nn[nH]c2=O)c1)c1cc(Cl)cc(N2CCCC2=O)c1
IC50 [1]: > 99.5 µM
IC50 [2]: > 100 µM

CCOC(=O)c1[nH]c(C)c(C(=O)Nc2cccc(CN)c2)c1CC
IC50 [1]: > 99.5 µM
IC50 [2]: > 100 µM

CC[C@H](Cc1nnn[nH]1)c1ccc(NC(=O)c2cc(Cl)cc3c2CCC3)cc1
IC50 [1]: 83.6 µM
IC50 [2]: 58.8 µM

Cc1c(C(=O)Nc2ccc3c(c2)CNCCO3)cc(C2CC2)n1C
IC50 [1]: > 99.5 µM
IC50 [2]: > 100 µM

CC[C@H](Cc1nnn[nH]1)c1ccc(NC(=O)c2cc(Cl)cc(C3CC3)c2)cc1
IC50 [1]: 55.2 µM
IC50 [2]: 28.7 µM and 35.1 µM

Cc1c(C(=O)Nc2cccc(C3CCNCC3)c2)cc(C2CC2)n1C
IC50 [1]: > 99.5 µM
IC50 [2]: > 100 µM

O=C(Nc1cc(Cl)cc(C(=O)Nc2ccc3c(c2)CNC3=O)c1)OCc1ccccc1
IC50 [1]: > 99.5 µM
IC50 [2]: > 100 µM

NCc1ccc2c(c1)[C@H](N1CCCC1=O)C[C@H](c1cc(Cl)cc(NC(=O)OCc3ccccc3)c1)N2
IC50 [1]: > 99.5 µM
IC50 [2]: 75.5 µM

Cc1c(C(=O)Nc2n[nH]c3c2CNC3)cc(C2CC2)n1C
IC50 [1]: > 99.5 µM
IC50 [2]: > 100 µM

Cc1c(C(=O)Nc2ccc(CCN)cc2)cc(C2CC2)n1C
IC50 [1]: > 99.5 µM
IC50 [2]: > 100 µM

CC[C@H](Cc1nnn[nH]1)c1ccc(NC(=O)c2cc(Cl)cc(Cl)c2OC)cc1
IC50 [1]: > 99.5 µM
IC50 [2]: > 100 µM

CCNC(=O)Nc1cc(Cl)cc(C(=O)O)c1
IC50 [1]: > 99.5 µM
IC50 [2]: > 100 µM
